# Experimental data from US20240358829A1, “Lymphocyte Population and Methods for Producing Same” (AVM Biotechnology, LLC, priority 2021, published 2024).
# Several values for one entry are separate records, joined by “and”; a condition that tells them apart may be missing. Equal entries are not always repeated.
# Test system: CD56+γδTCR+iTCR+ cells
# Assay: AVM0703 R/R NHL clinical trial, whole blood flow cytometry
# Assay type: in vivo, human
# Method: FIG. 15. 101-001 size (FSC) and complexity (SSC) scattergram of AVM_NKT cells. […] Blood was stained with panel antibodies based for 15 minutes in the dark at Room Temperature. RBC lysis was performed by addition of 1 mL of 1×BD FACS Lysing Solution (BD Bioscience), diluted with MilliQ water, for 10 minutes in the dark at Room Temperature. Samples were washed with 2 mL 1×DPBS CMF (Gibco) and resuspended in 300 μL of 1×DPBS CMF before 5 μL of 7AAD (Biolegend) was added to each sample for live/dead cell determination and incubated for 5 minutes in the dark at Room Temperature. 250 μL of sample were taken up for acquisition on Macsquant 16 Flow Cytometer (Miltenyi, Serial #40150). Live white blood cells were gated for CD56+ cells co-expressing gamma delta TCR and the invariant TCR and labelled red in the forward versus side scattergram. Red-labelled cells fall within the forward versus side scattergrams where large granular cells such as neutrophils and large granular lymphocytes are known to fall.
# For characterisation of the induced/mobilized population of NKT-like cells (AVM-NKT) in humans, whole blood from human subjects was drawn in K2 EDTA Vacutainer tube (367862, BD Biosciences, NJ) and shipped to AVM Biotechnology at room temperature. 100 μl of whole blood was stained with the following antibodies: CD45 AF700 (2D1), CD16 APC (3G8), INKT PECy7 (6B11), CD8 PE (SK1), CD14 FITC (M5E2), CD56 BV650 (5.1H11), γδTCR BV510 (B1), CD19 BV421 (HIB19), NKp44 APC (P44-8) (all from Biolegend, San Diego, CA) and CD3 APCVio770 (BW264/56), (Miltenyi Biotec, San Jose, CA), 7-AAD, (Biolegend, San Diego CA) was included to distinguish the live and dead cells.
# [1] = patient 108-001, 1st 9 mg/kg infusion, 1 hour
# [2] = patient 108-001, 1st 9 mg/kg infusion, Day 3
# [3] = patient 108-001, 1st 9 mg/kg infusion, Day 14
# [4] = patient 108-001, 2nd 9 mg/kg infusion, 1 hour
# [5] = patient 108-001, 2nd 9 mg/kg infusion, Day 3
# [6] = patient 108-001, 2nd 9 mg/kg infusion, Day 14
# [7] = patient 108-002, 18 mg/kg, 1 hour post-infusion
# [8] = patient 108-002, 18 mg/kg, Day 3
# [9] = patient 108-002, 18 mg/kg, Day 14
# [10] = patient 108-003, 12 mg/kg, 1 hour post-infusion
# [11] = patient 108-003, 12 mg/kg, Day 3
# [12] = patient 108-003, 12 mg/kg, Day 14
structure (smiles),measurement,setting,value
"C[C@@H]1C[C@H]2[C@@H]3CCC4=CC(=O)C=C[C@]4(C)[C@@]3(F)[C@@H](O)C[C@]2(C)[C@@]1(O)C(=O)COP(=O)(O)O [AVM0703, dexamethasone sodium phosphate]",CD45 (as % of CD56+ γδTCR+ iTCR+ cells),[1],96%
same,CD56+ γδTCR+ iTCR+ % of total WBCs,[1],0.72%
same,CD56+ γδTCR+ iTCR+ cells/uL,[1],112 cells/uL
same,CD3 (as % of CD56+ γδTCR+ iTCR+ cells),[2],24%
same,CD8hi (as % of CD56+ γδTCR+ iTCR+ cells),[2],2%
same,CD8med (as % of CD56+ γδTCR+ iTCR+ cells),[2],16%
same,CD14+ (as % of CD56+ γδTCR+ iTCR+ cells),[2],50%
same,CD16 (as % of CD56+ γδTCR+ iTCR+ cells),[2],80%
same,CD19+ (as % of CD56+ γδTCR+ iTCR+ cells),[2],24%
same,CD45 (as % of CD56+ γδTCR+ iTCR+ cells),[2],98%
same,CD56+ γδTCR+ iTCR+ % of total WBCs,[2],0.22%
same,CD56+ γδTCR+ iTCR+ cells/uL,[2],36 cells/uL and 36.0 cells/uL
same,CD56+ γδTCR+ iTCR+ % of total WBCs,[3],0.06%
same,CD56+ γδTCR+ iTCR+ cells/uL,[3],3 cells/uL
same,CD3 (as % of CD56+ γδTCR+ iTCR+ cells),[4],23%
same,CD8hi (as % of CD56+ γδTCR+ iTCR+ cells),[4],2.2%
same,CD8med (as % of CD56+ γδTCR+ iTCR+ cells),[4],4.4%
same,CD14+ (as % of CD56+ γδTCR+ iTCR+ cells),[4],81%
same,CD16 (as % of CD56+ γδTCR+ iTCR+ cells),[4],89%
same,CD19+ (as % of CD56+ γδTCR+ iTCR+ cells),[4],26%
same,CD45 (as % of CD56+ γδTCR+ iTCR+ cells),[4],13%
same,CD56+ γδTCR+ iTCR+ % of total WBCs,[4],0.84%
same,CD56+ γδTCR+ iTCR+ cells/uL,[4],26 cells/uL
same,CD3 (as % of CD56+ γδTCR+ iTCR+ cells),[5],49%
same,CD8hi (as % of CD56+ γδTCR+ iTCR+ cells),[5],1%
same,CD8med (as % of CD56+ γδTCR+ iTCR+ cells),[5],55%
same,CD14+ (as % of CD56+ γδTCR+ iTCR+ cells),[5],35%
same,CD16 (as % of CD56+ γδTCR+ iTCR+ cells),[5],58%
same,CD19+ (as % of CD56+ γδTCR+ iTCR+ cells),[5],17%
same,CD45 (as % of CD56+ γδTCR+ iTCR+ cells),[5],11%
same,CD56+ γδTCR+ iTCR+ % of total WBCs,[5],0.19%
same,CD56+ γδTCR+ iTCR+ cells/uL,[5],10.2 cells/uL
same,CD3 (as % of CD56+ γδTCR+ iTCR+ cells),[6],22%
same,CD8hi (as % of CD56+ γδTCR+ iTCR+ cells),[6],4%
same,CD8med (as % of CD56+ γδTCR+ iTCR+ cells),[6],20%
same,CD14+ (as % of CD56+ γδTCR+ iTCR+ cells),[6],76%
same,CD16 (as % of CD56+ γδTCR+ iTCR+ cells),[6],82%
same,CD19+ (as % of CD56+ γδTCR+ iTCR+ cells),[6],28%
same,CD45 (as % of CD56+ γδTCR+ iTCR+ cells),[6],84%
same,CD56+ γδTCR+ iTCR+ % of total WBCs,[6],0.43%
same,CD56+ γδTCR+ iTCR+ cells/uL,[6],20 cells/uL
same,AVM_NKT CD56+γδTCR+iTCR+ cells in the blood,"patient 108-001, after the third 9 mg/kg infusion",not evident in the blood
same,CD56+gdTCR+ inv TCR+ cells induced,"patient 108-002, 18 mg/kg",YES
same,CD3 (as % of CD56+ γδTCR+ iTCR+ cells),[7],83.2%
same,CD8hi (as % of CD56+ γδTCR+ iTCR+ cells),[7],88%
same,CD8med (as % of CD56+ γδTCR+ iTCR+ cells),[7],12.3%
same,CD14+ (as % of CD56+ γδTCR+ iTCR+ cells),[7],79%
same,CD16 (as % of CD56+ γδTCR+ iTCR+ cells),[7],87%
same,CD19+ (as % of CD56+ γδTCR+ iTCR+ cells),[7],98%
same,CD45 (as % of CD56+ γδTCR+ iTCR+ cells),[7],100%
same,CD56+ γδTCR+ iTCR+ cells/uL,[7],49.5 cells/uL
same,CD56+ γδTCR+ iTCR+ % of total WBCs,[8],0.04%
same,CD56+ γδTCR+ iTCR+ cells/uL,[8],2.3 cells/uL
same,CD3 (as % of CD56+ γδTCR+ iTCR+ cells),[9],72%
same,CD8hi (as % of CD56+ γδTCR+ iTCR+ cells),[9],73%
same,CD8med (as % of CD56+ γδTCR+ iTCR+ cells),[9],16.5%
same,CD14+ (as % of CD56+ γδTCR+ iTCR+ cells),[9],80%
same,CD16 (as % of CD56+ γδTCR+ iTCR+ cells),[9],41.2%
same,CD19+ (as % of CD56+ γδTCR+ iTCR+ cells),[9],80%
same,CD45 (as % of CD56+ γδTCR+ iTCR+ cells),[9],84%
same,CD56+ γδTCR+ iTCR+ % of total WBCs,[9],0.25%
same,CD56+ γδTCR+ iTCR+ cells/uL,[9],9.7 cells/uL
same,CD56+gdTCR+ inv TCR+ cells induced,"patient 108-003, 12 mg/kg",YES
same,CD3 (as % of CD56+ γδTCR+ iTCR+ cells),[10],14%
same,CD8hi (as % of CD56+ γδTCR+ iTCR+ cells),[10],1.7%
same,CD8med (as % of CD56+ γδTCR+ iTCR+ cells),[10],9%
same,CD14+ (as % of CD56+ γδTCR+ iTCR+ cells),[10],43%
same,CD16 (as % of CD56+ γδTCR+ iTCR+ cells),[10],85%
same,CD19+ (as % of CD56+ γδTCR+ iTCR+ cells),[10],40%
same,CD45 (as % of CD56+ γδTCR+ iTCR+ cells),[10],95%
same,CD56+ γδTCR+ iTCR+ % of total WBCs,[10],0.4%
same,CD56+ γδTCR+ iTCR+ cells/uL,[10],31.8 cells/uL
same,CD3 (as % of CD56+ γδTCR+ iTCR+ cells),[11],80%
same,CD8hi (as % of CD56+ γδTCR+ iTCR+ cells),[11],12.6%
same,CD8med (as % of CD56+ γδTCR+ iTCR+ cells),[11],45%
same,CD14+ (as % of CD56+ γδTCR+ iTCR+ cells),[11],68%
same,CD16 (as % of CD56+ γδTCR+ iTCR+ cells),[11],75%
same,CD19+ (as % of CD56+ γδTCR+ iTCR+ cells),[11],11.5%
same,CD45 (as % of CD56+ γδTCR+ iTCR+ cells),[11],67%
same,CD56+ γδTCR+ iTCR+ % of total WBCs,[11],0.6%
same,CD56+ γδTCR+ iTCR+ cells/uL,[11],58.4 cells/uL
same,CD3 (as % of CD56+ γδTCR+ iTCR+ cells),[12],90%
same,CD8hi (as % of CD56+ γδTCR+ iTCR+ cells),[12],8%
same,CD8med (as % of CD56+ γδTCR+ iTCR+ cells),[12],84%
same,CD14+ (as % of CD56+ γδTCR+ iTCR+ cells),[12],87%
same,CD16 (as % of CD56+ γδTCR+ iTCR+ cells),[12],89%
same,CD19+ (as % of CD56+ γδTCR+ iTCR+ cells),[12],12.4%
same,CD45 (as % of CD56+ γδTCR+ iTCR+ cells),[12],94%
same,CD56+ γδTCR+ iTCR+ % of total WBCs,[12],0.83%
same,CD56+ γδTCR+ iTCR+ cells/uL,[12],94 cells/uL
same,CD56+γδTCR+invTCR+ cells in blood,"patient 108-004, 12 mg/kg, one hour, 3 days or 14 days after infusion (pre-infusion 0.09%, 4.6 cells/uL)",no increase
